From patent publication US20240175819A1, “DIAGNOSTIC TEST” (THE UNIVERSITY OF WARWICK, priority 2022, published 2024)

Tested on: E. coli
Test: Hydrogel biosensors with encapsulated antibiotic spiked with E. coli; inhibition of bacterial growth by antibiotic release (FIG. 6)
Format: cell-based
Details: antibiotic encapsulated within crosslinked hydrogel network, photographs
Description: FIG. 6 is a series of photographs of biosensors each comprising a different antibiotic wherein bacterial growth is inhibited as a result of antibiotic release from the hydrogel network;
Referring now to FIG. 6, there is shown photographs of three biosensors 6A, 6B, 6C each comprising a different antibiotic encapsulated within the crosslinked hydrogel network. Biosensor 6A comprises the antibiotic chloramphenicol, biosensor 6B comprises the antibiotic kanamycin, and biosensor 6C comprises the antibiotic ampicillin. The biosensors 6A, 6B, 6C were spiked with E. coli. In each case, it is shown that there is antibacterial activity in the area surrounding the spiked portion of hydrogel. Therefore, in these cases, E. coli. is shown to be susceptible to the antibiotics encapsulated within the biosensors 6A, 6B, 6C.

SMILES | susceptibility of E. coli to the antibiotic encapsulated within the biosensor (antibacterial activity in the area surrounding the spiked portion of hydrogel)
CC1(C)S[C@@H]2[C@H](NC(=O)[C@H](N)c3ccccc3)C(=O)N2[C@H]1C(=O)O [ampicillin] | susceptible
O=C(N[C@H](CO)[C@H](O)c1ccc([N+](=O)[O-])cc1)C(Cl)Cl [chloramphenicol] | susceptible
